Test results reported in patent US10485235B2, “Aryloxypyrimidinyl ethers as herbicides” (FMC Corporation, priority 2015, dated 2019).

Tests used:
Assay type in all cases: in vivo
[1] = system: barnyardgrass (Echinochloa crus-galli); assay: Test A preemergence, barnyardgrass; details: Echinochloa crus-galli, pre-emergence, 240 h, Preemergence, 0 to 100 scale (0 no effect, 100 complete control), read-out: Plant response rating, Barnyardgrass; for pest or weed control at 125 g/ha: 125 g ai/ha; for pest or weed control at 31 g/ha: 31 g ai/ha
In short: (§1)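 Planted seeds in loam soil mixed with sand; sprayed soil directly (pre). Grew seedlings to one- to two-leaf stage, 2–10 cm; sprayed foliage (post). Held in greenhouse ~10 days. Rated injury visually vs untreated controls, 0–100.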

kochia (Kochia scoparia) [2] = assay: Test A preemergence, kochia; details: Bassia scoparia, pre-emergence, 240 h, Preemergence, 0 to 100 scale (0 no effect, 100 complete control), read-out: Plant response rating, Kochia; for pest or weed control at 125 g/ha: 125 g ai/ha; for pest or weed control at 31 g/ha: 31 g ai/ha
In short: as §1

[3] = system: ragweed (common ragweed, Ambrosia elatior); assay: Test A preemergence, ragweed; details: Ambrosia artemisiifolia, pre-emergence, 240 h, Preemergence, 0 to 100 scale (0 no effect, 100 complete control), read-out: Plant response rating, Ragweed; for pest or weed control at 125 g/ha: 125 g ai/ha; for pest or weed control at 31 g/ha: 31 g ai/ha
In short: as §1

[4] = system: pigweed (Amaranthus retroflexus); assay: Test A preemergence, pigweed; details: Amaranthus retroflexus, pre-emergence, 240 h, Preemergence, 0 to 100 scale (0 no effect, 100 complete control), read-out: Plant response rating, Pigweed; for pest or weed control at 125 g/ha: 125 g ai/ha; for pest or weed control at 31 g/ha: 31 g ai/ha
In short: as §1

[5] = system: barnyardgrass (Echinochloa crus-galli); assay: Test A postemergence, barnyardgrass; details: Echinochloa crus-galli, post-emergence, 240 h, postemergence, 0 to 100 scale, 0 is no effect, 100 is complete control, approximately 10 days, read-out: Plant response rating, Barnyardgrass; for pest or weed control at 125 g/ha: 125 g ai/ha; for pest or weed control at 31 g/ha: 31 g ai/ha
In short: as §1

kochia (Kochia scoparia) [6] = assay: Test A postemergence, kochia; details: Bassia scoparia, post-emergence, 240 h, postemergence, 0 to 100 scale, 0 is no effect, 100 is complete control, approximately 10 days, read-out: Plant response rating, Kochia; for pest or weed control at 125 g/ha: 125 g ai/ha; for pest or weed control at 31 g/ha: 31 g ai/ha
In short: as §1

[7] = system: ryegrass, Italian (Italian ryegrass, Lolium multiflorum); assay: Test A postemergence, Italian ryegrass; details: Lolium multiflorum, post-emergence, 240 h, postemergence, 0 to 100 scale, 0 is no effect, 100 is complete control, approximately 10 days, read-out: Plant response rating, Ryegrass, Italian; for pest or weed control at 125 g/ha: 125 g ai/ha; for pest or weed control at 31 g/ha: 31 g ai/ha
In short: as §1

[8] = system: foxtail, giant (giant foxtail, Setaria faberii); assay: Test A postemergence, giant foxtail; details: Setaria faberi, post-emergence, 240 h, postemergence, 0 to 100 scale, 0 is no effect, 100 is complete control, approximately 10 days, read-out: Plant response rating, Foxtail, Giant; for pest or weed control at 125 g/ha: 125 g ai/ha; for pest or weed control at 31 g/ha: 31 g ai/ha
In short: as §1

[9] = system: wheat (Triticum aestivum); assay: Test A postemergence, wheat; details: Triticum aestivum, post-emergence, 240 h, postemergence, 0 to 100 scale, 0 is no effect, 100 is complete control, approximately 10 days, read-out: Plant response rating, Wheat; for plant injury at 125 g/ha: 125 g ai/ha; for plant injury at 31 g/ha: 31 g ai/ha
In short: as §1

corn (Zea mays) = assay: Test A postemergence, corn; details: Zea mays, post-emergence, 240 h, postemergence, 0 to 100 scale, 0 is no effect, 100 is complete control, approximately 10 days; for Corn plant response rating (crop injury, 0 = no effect, 100 = complete kill) at 125 g/ha: 125 g ai/ha; for Corn plant response rating (crop injury, 0 = no effect, 100 = complete kill) at 31 g/ha: 31 g ai/ha
In short: as §1

[10] = system: blackgrass (Alopecurus myosuroides); assay: Test A postemergence, blackgrass; details: Alopecurus myosuroides, post-emergence, 240 h, postemergence, 0 to 100 scale, 0 is no effect, 100 is complete control, approximately 10 days, read-out: Plant response rating, Blackgrass; for pest or weed control at 125 g/ha: 125 g ai/ha; for pest or weed control at 31 g/ha: 31 g ai/ha
In short: as §1

[11] = system: galium (catchweed bedstraw, Galium aparine); assay: Test A postemergence, galium; details: Galium, post-emergence, 240 h, postemergence, 0 to 100 scale, 0 is no effect, 100 is complete control, approximately 10 days, read-out: Plant response rating, Galium; for pest or weed control at 125 g/ha: 125 g ai/ha; for pest or weed control at 31 g/ha: 31 g ai/ha
In short: as §1

[12] = system: sedge, umbrella (small-flower umbrella sedge, Cyperus difformis); assay: Test B flooded paddy test, umbrella sedge; details: Cyperus difformis; 250 g ai/ha, Flood; visual rating after 13 to 15 days; scale 0 to 100, 0 is no effect, 100 is complete control; read-out: Plant response rating, Sedge, Umbrella
In short: (§2)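 Plants grown to 2-leaf stage, pots flooded to 3 cm above soil and compound applied directly to paddy water, depth maintained throughout. After 13-15 days in greenhouse, visual rating against untreated controls on 0-100 scale (0 no effect, 100 complete control).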

[13] = system: ducksalad (Heteranthera limosa); assay: Test B flooded paddy test, ducksalad; details: Heteranthera limosa; 250 g ai/ha, Flood; visual rating after 13 to 15 days; scale 0 to 100, 0 is no effect, 100 is complete control; read-out: Plant response rating, Ducksalad
In short: as §2

Row | SMILES | pest or weed control at 125 g/ha [1] [%] | pest or weed control at 125 g/ha (kochia (Kochia scoparia) [2]) [%] | pest or weed control at 125 g/ha [3] [%] | pest or weed control at 125 g/ha [4] [%] | pest or weed control at 125 g/ha [5] [%] | pest or weed control at 125 g/ha (kochia (Kochia scoparia) [6]) [%] | pest or weed control at 125 g/ha [7] [%] | pest or weed control at 125 g/ha [8] [%] | plant injury at 125 g/ha [9] [%] | Corn plant response rating (crop injury, 0 = no effect, 100 = complete kill) at 125 g/ha (corn (Zea mays)) [%] | pest or weed control at 125 g/ha [10] [%] | pest or weed control at 125 g/ha [11] [%] | pest or weed control at 250 g/ha [12] [%] | pest or weed control at 250 g/ha [13] [%] | pest or weed control at 31 g/ha [1] [%] | pest or weed control at 31 g/ha (kochia (Kochia scoparia) [2]) [%] | pest or weed control at 31 g/ha [3] [%] | pest or weed control at 31 g/ha [4] [%] | pest or weed control at 31 g/ha [5] [%] | pest or weed control at 31 g/ha (kochia (Kochia scoparia) [6]) [%] | also measured
1 | CCCCOc1c(C#N)cccc1Oc1ncc(Cl)cn1 [Compound 35, 2-butoxy-3-[(5-chloro-2-pyrimidinyl)oxy]benzonitrile] | 100 | 100 | 10 | 100 | 80 | 100 | 40 | 90 | 10 | 20 | 70 | 90 | 70 | 65 | – | – | – | – | – | – | pest or weed control at 500 g/ha ([1]; 500 g ai/ha): 100%; pest or weed control at 500 g/ha (kochia (Kochia scoparia) [2]; 500 g ai/ha): 100%; pest or weed control at 500 g/ha ([3]; 500 g ai/ha): 30%; pest or weed control at 500 g/ha ([4]; 500 g ai/ha): 100%; pest or weed control at 500 g/ha ([5]; 500 g ai/ha): 100%; pest or weed control at 500 g/ha (kochia (Kochia scoparia) [6]; 500 g ai/ha): 100%; pest or weed control at 500 g/ha ([7]; 500 g ai/ha): 80%; pest or weed control at 500 g/ha ([8]; 500 g ai/ha): 90%; plant injury at 500 g/ha ([9]; 500 g ai/ha): 40%; Corn plant response rating (crop injury, 0 = no effect, 100 = complete kill) at 500 g/ha (corn (Zea mays); 500 g ai/ha): 70%; pest or weed control at 500 g/ha ([10]; 500 g ai/ha): 90%; pest or weed control at 500 g/ha ([11]; 500 g ai/ha): 100%
2 | FC(F)(F)COc1c(Cl)cccc1Oc1ncc(Cl)cn1 [Compound 42] | 10 | 10 | 0 | 60 | 10 | 10 | 0 | 10 | 0 | 10 | 10 | 20 | 60 | 70 | 0 | 0 | 0 | 0 | 0 | 0 | pest or weed control at 31 g/ha [7]: 0%; pest or weed control at 31 g/ha [8]: 0%; plant injury at 31 g/ha [9]: 0%; Corn plant response rating (crop injury, 0 = no effect, 100 = complete kill) at 31 g/ha (corn (Zea mays)): 0%; pest or weed control at 31 g/ha [10]: 0%; pest or weed control at 31 g/ha [11]: 0%
3 | Cc1cccc(Oc2ncc(Cl)cn2)c1OCC(F)(F)F [Compound 63] | 0 | 0 | 0 | 0 | 0 | 0 | 0 | 0 | 0 | 0 | 0 | 0 | 90 | 100 | 0 | 0 | 0 | 0 | 0 | 0 | pest or weed control at 31 g/ha [7]: 0%; pest or weed control at 31 g/ha [8]: 0%; plant injury at 31 g/ha [9]: 0%; Corn plant response rating (crop injury, 0 = no effect, 100 = complete kill) at 31 g/ha (corn (Zea mays)): 0%; pest or weed control at 31 g/ha [10]: 0%; pest or weed control at 31 g/ha [11]: 0%
